Measured values as given in article PMC5404848 (Cell Chemical Biology, 2017).
Read-outs that look alike come from different tables or passages of the source.

What was measured:
[1] = molecular target: T1, human recombinant USP2a catalytic domain (residues 258-605) (Homo sapiens, UniProt O75604); assay: Ub-AMC hydrolysis assay; conditions: 30 min pre-incubation; for IC50: read-out: IC50, USP2a activity, Ub-AMC Assay
T1 sequence (O75604 258-605): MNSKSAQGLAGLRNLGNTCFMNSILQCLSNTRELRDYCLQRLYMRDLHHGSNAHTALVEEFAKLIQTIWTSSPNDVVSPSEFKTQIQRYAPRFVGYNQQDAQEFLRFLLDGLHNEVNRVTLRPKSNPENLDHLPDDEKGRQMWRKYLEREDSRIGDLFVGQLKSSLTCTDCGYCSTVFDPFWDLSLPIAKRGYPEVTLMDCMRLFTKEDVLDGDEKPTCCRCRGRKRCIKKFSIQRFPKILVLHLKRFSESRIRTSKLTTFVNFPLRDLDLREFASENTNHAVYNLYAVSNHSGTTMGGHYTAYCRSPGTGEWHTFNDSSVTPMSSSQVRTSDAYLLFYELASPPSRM
Procedure: (§4) The assays were performed using Infinite 200 PRO – Tecan plate reader and 96-well, black Greiner microplates in a 100 μl reaction volume.
Ub-AMC-hydrolysis assay was performed in a reaction buffer (50 mM Tris/HCl, pH=7.5, 1 mM EDTA, 1 mM MgCl2).
(§5) All assays were performed simultaneously in triplicate and results are presented as mean values ± SD.

[2] = molecular target: T1, human recombinant USP2a catalytic domain (residues 258-605); assay: Di-Ub K63-2 hydrolysis (FRET) assay; conditions: read-out: IC50, USP2a activity, Di-Ub Assay; Di-Ub K63-2, 30 min pre-incubation
Procedure: as §4
Di-Ub K63-2 hydrolysis assay was performed in 50 mM Tris/HCl pH=7.5, 1mM DTT. USP2a (20 nM) was preincubated with an excess of tested compound for 30 min. Fluorescence changes were recorded at excitation and emission wavelengths of 540 nm and 580 nm respectively, immediately after Di-Ub (200 nM, LifeSensors) addition.
as §5

HCT116 p53^wt cells [3] = assay: MTT assay (cell viability), 6 days treatment; type: cell-based, Human; conditions: for growth-inhibitory (GI) properties: cell-based assay (discussion); for LD50 (concentration killing 50% of cells): Homo sapiens, HCT-116, 144 h, read-out: LD50
Procedure: (§1) To test the biological activity of the compounds, we performed MTT (3-(4,5-dimethylthiazol-2-yl)-2,5-diphenyltetrazolium bromide) and lactate dehydrogenase (LDH) release assays. […] To track not only the toxic (lethal) but also growth-inhibitory (GI) effect in the MTT assay, we treated the cells for 6 days.
(§2) For MTT assay, the cells were seeded on 96-well transparent plates and treated the next day with the compounds or DMSO for 6 days. Thiazolyl Blue Tetrazolium Bromide (MTT, Sigma Aldrich) was added for 60 minutes to a final concentration of […]. The medium was removed and MTT crystals were dissolved in isopropanol supplemented with 40 mM HCl. The absorbance was measured with Infinite 200 microplate reader (Tecan Group Ltd.) at 570 nm with the reference wavelength 650 nm for background subtraction.

USP7 = molecular target: T2, USP7 (Homo sapiens, UniProt Q93009); assay: Ub-AMC assay, USP7 selectivity; type: biochemical; conditions: 10 μM
T2 construct: Human USP7 catalytic domain (residues 208-561) was cloned into the pGEX-6P-1 vector; GST (N, cleaved yes); made in house; host or cells: E. coli BL21 (DE3)
Procedure: Cells were grown in LB medium containing 100 μg/ml ampicillin at 37 °C and induced with 0.5 mM IPTG at OD600 of 0.7-0.9 and cultured overnight at 16 °C. Cells were harvested by centrifugation. Next cells were resuspended in buffer A (50 mM Tris/HCl pH 9.0, 50 mM NaCl, 3 mM β-mercapthoetanol) and disrupted by sonication. Cell lysate were clarified by centrifugation (45 000 g, 40 min.) and dialyzed against buffer A. Supernatant was loaded onto Q-Sepharose column and proteins were eluted with NaCl gradient. Fractions containing GST fused USP7 were combined, concentrated and dialyzed against buffer (50 mM Tris/HCl pH 7.0, 50 mM NaCl, 3 mM β-mercapthoetanol). During dialysis protein was digested with PreScission Protease (GE Healthcare). USP7 protein and cleaved GST were separated on Mono Q HR 10/10 column (GE Healthcare). The last purification step consisted of size exclusion chromatography on HiLoad 16/60 Superdex 75 prep grade (GE Healthcare) in 50 mM Tris/HCl, 150 mM NaCl, 2 mM DTT.

HCT116 p53^wt cells [4] = assay: Western blot analysis of protein expression; type: cell-based, Human; conditions: 5 or 20 μM, 48 hr
Text: (§3) The progression from G1 to S phase relies largely on the expression and activity of D cyclins. To verify whether the observed impairment in cell-cycle progression following LCAHA treatment is associated with D cyclins, we investigated the expression of cyclins D1 and D3 in HCT116 p53^wt and HCT116 p53^−/− cells.

HCT116 p53^−/− cells [5] = assay: Western blot analysis of protein expression; type: cell-based, Human; conditions: 5 or 20 μM, 48 hr
Text: as §3

HCT116 p53^wt cells [6] = assay: Western blot analysis of protein expression; type: cell-based, Human; conditions: for expression of p27: 5 or 20 μM, 48 hr, HCT116 cells (Figures 2A and S3A); for expression of proteins encoded by p53-target genes (MDM2 and p21) and of p53: 24 or 48 hr
HCT116 p53^−/− cells [7] = assay: MTT assay (cell viability), 6 days treatment; type: cell-based, Human
Procedure: as §1, §2

[8] = Solubility problems in cell line experiment or enzymatic assay; type: physicochemical; conditions: in either the cell line experiment or the enzymatic assay
USP2a = tested on: USP2a; design: method as in Nicholson et al., 2008; conditions: ref Nicholson et al., 2008; read-out: EC50 (previously reported); cited from earlier work
HCT116 p53^wt cells [9] = assay: Caspase 3/7 activity (Caspase-Glo 3/7); type: cell-based, Human; conditions: staurosporine treatment (apoptosis inducer control)
Procedure: To evaluate whether the observed effects are accompanied by the induction of apoptosis, we examined the activation of caspases 3 and 7 in HCT116 p53^wt cells.
The cells were plated on the 96-well white, flat bottom plates (Falcon) and treated with DMSO, LCAHA or Staurosporine. For the detection of caspase activity Caspase-Glo 3/7 Assay System was used (Promega) according to the manufacturer’s instructions.

[10] = Homo sapiens, HCT-116, 144 h, read-out: LD50

T2 sequence (Q93009 208-561): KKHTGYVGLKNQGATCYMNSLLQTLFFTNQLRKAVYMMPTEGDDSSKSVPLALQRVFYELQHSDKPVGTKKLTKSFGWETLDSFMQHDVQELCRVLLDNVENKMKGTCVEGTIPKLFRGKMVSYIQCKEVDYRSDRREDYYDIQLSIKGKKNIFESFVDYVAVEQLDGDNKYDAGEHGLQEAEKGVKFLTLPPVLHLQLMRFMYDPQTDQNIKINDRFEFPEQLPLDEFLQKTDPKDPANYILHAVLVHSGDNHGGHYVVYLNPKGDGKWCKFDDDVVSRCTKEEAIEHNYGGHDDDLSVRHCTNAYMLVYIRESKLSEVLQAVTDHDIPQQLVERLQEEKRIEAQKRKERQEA

C[C@H](CCC(=O)O)[C@H]1CC[C@H]2[C@@H]3[C@H](O)C[C@@H]4C[C@H](O)CC[C@]4(C)[C@H]3C[C@H](O)[C@]12C [CGG, cholic acid, reference compound]
IC50, USP2a activity, Ub-AMC Assay [1]: not active | IC50 [2]: > 100 µM

C[C@H](CCC(=O)O)[C@H]1CC[C@H]2[C@@H]3CC[C@@H]4C[C@H](O)CC[C@]4(C)[C@H]3CC[C@]12C [LCA, Lithocholic acid, reference compound]
growth-inhibitory (GI) properties (HCT116 p53^wt cells [3]): inactive in the inhibition of cell growth | inhibition of USP7 protein activity (USP7): no inhibition | cyclin D1 expression (HCT116 p53^wt cells [4]): did not affect | cyclin D3 expression (HCT116 p53^wt cells [4]): significantly increased | cyclin D1 expression (HCT116 p53^−/− cells [5]): did not affect | cyclin D3 expression (HCT116 p53^−/− cells [5]): significantly increased | expression of p27 (HCT116 p53^wt cells [6]): not altered | expression of proteins encoded by p53-target genes (MDM2 and p21) and of p53 (HCT116 p53^wt cells [6]): did not induce | IC50 [1]: 31.1 ± 3.4 µM | IC50 [2]: 32 ± 3.2 µM

C[C@H](CCC(=O)NCC#N)[C@H]1CC[C@H]2[C@@H]3CC[C@@H]4C[C@H](O)CC[C@]4(C)[C@H]3CC[C@]12C [LCACN, N-(cyanomethyl)-3-hydroxylithocholanamide]
LD50 (concentration killing 50% of cells) (HCT116 p53^wt cells [3]): 28 ± 0.7 µM | LD50 (HCT116 p53^−/− cells [7]; [10]): 29.9 ± 3.2 µM | solubility [8]: solubility problems | IC50 [1]: 7.4 ± 1.2 µM | IC50 [2]: 13.9 ± 2.3 µM

CC(=O)O[C@@H]1CC[C@@]2(C)[C@H](CC[C@@H]3[C@@H]2CC[C@]2(C)[C@@H]([C@H](C)CCC(=O)O)CC[C@@H]32)C1 [LCAE, 3-Acetoxy-Lithocholic Acid]
growth-inhibitory (GI) properties (HCT116 p53^wt cells [3]): no GI properties | cyclin D1 expression (HCT116 p53^wt cells [4]): decreased the expression of the protein | cyclin D3 expression (HCT116 p53^wt cells [4]): no effect | cyclin D3 expression (HCT116 p53^−/− cells [5]): no effect | expression of p27 (HCT116 p53^wt cells [6]): not altered | expression of proteins encoded by p53-target genes (MDM2 and p21) and of p53 (HCT116 p53^wt cells [6]): did not induce

C[C@H](CCC(=O)NCC(=O)O)[C@H]1CC[C@H]2[C@@H]3CC[C@@H]4C[C@H](O)CC[C@]4(C)[C@H]3CC[C@]12C [LCAGLY, N-(3-hydroxylithocholanolyl)glycine]
IC50 [1]: > 50 µM | IC50 [2]: > 50 µM

C[C@H](CCC(=O)O)[C@H]1CC[C@H]2[C@@H]3CC[C@@H]4CC(=O)CC[C@]4(C)[C@H]3CC[C@]12C [LCAK, 3-Oxo-Lithocholic Acid]
IC50 [1]: 32 ± 1.8 µM | IC50 [2]: 33.1 ± 3.2 µM

COC(=O)CC[C@@H](C)[C@H]1CC[C@H]2[C@@H]3CC[C@@H]4C[C@H](O)CC[C@]4(C)[C@H]3CC[C@]12C [LCAME, Methyl 3-Hydroxylithocholanoate]
LD50 (HCT116 p53^wt cells [3]; HCT116^wt, MTT assay, 6 days): 20.5 ± 1.1 µM | LD50 (HCT116 p53^−/− cells [7]; HCT116 p53^−/−, MTT assay, 6 days): 35.1 ± 4.8 µM | IC50 [1]: > 50 µM | IC50 [2]: > 50 µM

C[C@H](CCC(=O)N1CCOCC1)[C@H]1CC[C@H]2[C@@H]3CC[C@@H]4C[C@H](O)CC[C@]4(C)[C@H]3CC[C@]12C [LCAMR, N-lithocholanolyl Morpholine]
LD50 (concentration killing 50% of cells) (HCT116 p53^wt cells [3]): 8.2 ± 0.7 µM | LD50 (HCT116 p53^−/− cells [7]; [10]): 7.9 ± 0.7 µM | IC50 [1]: > 100 µM | IC50 [2]: > 100 µM

C[C@H](CCC(N)=O)[C@H]1CC[C@H]2[C@@H]3CC[C@@H]4C[C@H](O)CC[C@]4(C)[C@H]3CC[C@]12C [LCANH2, 3-hydroxylithocholanamide]
LD50 (concentration killing 50% of cells) (HCT116 p53^wt cells [3]): 24.5 ± 0.9 µM | LD50 (HCT116 p53^−/− cells [7]; [10]): 41.8 ± 2.7 µM | IC50 [1]: 27.9 ± 1 µM | IC50 [2]: 16.7 ± 1.3 µM

Cc1ccc(/C=C2\CNC/C(=C\c3ccc(C)cc3)C2=O)cc1 [NSC 632839, reference compound]
EC50 (USP2a): 45 ± 4 µM | IC50 [1]: 39.1 ± 6.4 µM | IC50 [2]: > 50 µM

C[C@H](CCC(=O)NCCS(=O)(=O)O)[C@H]1CC[C@H]2[C@@H]3[C@H](O)C[C@@H]4C[C@H](O)CC[C@]4(C)[C@H]3C[C@H](O)[C@]12C [TCAS, taurocholic acid, reference compound]
IC50, USP2a activity, Ub-AMC Assay [1]: not active

C[C@H](CCC(=O)O)[C@H]1CC[C@H]2[C@@H]3[C@@H](O)C[C@@H]4C[C@H](O)CC[C@]4(C)[C@H]3CC[C@]12C [UDCA, ursodeoxycholic acid, reference compound]
IC50, USP2a activity, Ub-AMC Assay [1]: not active | IC50 [2]: > 100 µM

CN[C@@H]1C[C@H]2O[C@@](C)([C@@H]1OC)n1c3ccccc3c3c4c(c5c6ccccc6n2c5c31)C(=O)NC4 [staurosporine, reference compound]
activity of caspases 3 and 7 (HCT116 p53^wt cells [9]): strong increase
